# Legend:
# DNA gyrase [1] = target: DNA gyrase (Escherichia coli, UniProt P0AES4+P0AES6); test: Inhibition of Escherichia coli DNA gyrase supercoiling activity; format: protein-complex assay
# Escherichia coli [2] = test: Antibacterial activity against wild type Escherichia coli; format: functional
# Staphylococcus aureus [3] = test: Antibacterial activity against wild type Staphylococcus aureus; format: functional
# [4] = Inhibition of Escherichia coli DNA topoisomerase 4 decatenation activity
# DNA gyrase [5] = target: DNA gyrase (Staphylococcus aureus, UniProt P0A0K8+P20831); test: Inhibition of Staphylococcus aureus DNA gyrase supercoiling activity; format: protein-complex assay
# Topoisomerase IV = Topoisomerase IV (Staphylococcus aureus, UniProt P0C1S7+P0C1U9); test: Inhibition of Staphylococcus aureus DNA topoisomerase 4 decatenation activity; format: protein-complex assay
# Streptococcus pneumoniae [6] = test: Antibacterial activity against wild type Streptococcus pneumoniae in presence of 2.5% lysed horse blood; format: functional
# Pseudomonas aeruginosa [7] = test: Antibacterial activity against wild type Pseudomonas aeruginosa; format: functional
# Moraxella catarrhalis = test: Antibacterial activity against wild type Moraxella catarrhalis incubated for 20 hrs by two-fold serial dilution method; format: functional
# Acinetobacter baumannii = test: Antibacterial activity against wild type Acinetobacter baumannii incubated for 20 hrs by two-fold serial dilution method; format: functional
# Haemophilus influenzae = test: Antibacterial activity against wild type Haemophilus influenzae incubated for 20 hrs by two-fold serial dilution method; format: functional
# Escherichia coli [8] = test: Antibacterial activity against wild type Escherichia coli incubated for 20 hrs by two-fold serial dilution method; format: functional
# Enterococcus faecium = test: Antibacterial activity against vancomycin-resistant Enterococcus faecium incubated for 20 hrs by two-fold serial dilution method; format: functional
# Pseudomonas aeruginosa [9] = test: Antibacterial activity against wild type Pseudomonas aeruginosa incubated for 20 hrs by two-fold serial dilution method; format: functional
# Staphylococcus aureus [10] = test: Antibacterial activity against wild type Staphylococcus aureus incubated for 20 hrs by two-fold serial dilution method; format: functional
# Staphylococcus aureus [11] = test: Antibacterial activity against methicillin-resistant Staphylococcus aureus incubated for 20 hrs by two-fold serial dilution method; format: functional
# Streptococcus pneumoniae [12] = test: Antibacterial activity against wild type Streptococcus pneumoniae incubated for 20 hrs in presence of 2.5% lysed horse blood by two-fold serial dilution method; format: functional
# [13] = Inhibition of Escherichia coli DNA topoisomerase 4 ATPase activity
# Staphylococcus aureus [14] = test: Antibacterial activity against wild type Staphylococcus aureus incubated for 20 hrs in presence of 50% of human serum by two-fold serial dilution method; format: functional
# Enterococcus faecalis = test: Antibacterial activity against wild type Enterococcus faecalis incubated for 20 hrs by two-fold serial dilution method; format: functional
# Topoisomerase IV, sequence (P0C1U9 whole entry): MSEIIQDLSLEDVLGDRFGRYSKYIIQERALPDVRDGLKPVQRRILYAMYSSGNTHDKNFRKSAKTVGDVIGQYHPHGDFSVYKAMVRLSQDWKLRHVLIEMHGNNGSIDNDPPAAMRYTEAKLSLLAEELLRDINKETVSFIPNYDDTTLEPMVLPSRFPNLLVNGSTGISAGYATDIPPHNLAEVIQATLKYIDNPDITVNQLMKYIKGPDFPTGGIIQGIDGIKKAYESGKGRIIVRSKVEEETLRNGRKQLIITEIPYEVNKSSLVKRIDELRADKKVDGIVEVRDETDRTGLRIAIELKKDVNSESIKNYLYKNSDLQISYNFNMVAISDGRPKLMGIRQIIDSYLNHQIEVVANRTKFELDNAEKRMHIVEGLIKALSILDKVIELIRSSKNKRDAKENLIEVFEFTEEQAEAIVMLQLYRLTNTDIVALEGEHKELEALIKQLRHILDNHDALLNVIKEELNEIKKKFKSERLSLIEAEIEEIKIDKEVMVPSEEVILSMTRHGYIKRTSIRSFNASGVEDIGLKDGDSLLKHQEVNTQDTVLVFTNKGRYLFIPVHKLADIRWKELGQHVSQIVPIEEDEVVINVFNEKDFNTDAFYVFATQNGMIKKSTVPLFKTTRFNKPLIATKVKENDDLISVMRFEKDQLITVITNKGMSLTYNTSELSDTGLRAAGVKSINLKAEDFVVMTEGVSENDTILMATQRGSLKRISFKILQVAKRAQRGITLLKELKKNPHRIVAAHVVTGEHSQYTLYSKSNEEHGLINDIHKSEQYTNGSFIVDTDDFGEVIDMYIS
# Topoisomerase IV, sequence (P0C1S7 whole entry): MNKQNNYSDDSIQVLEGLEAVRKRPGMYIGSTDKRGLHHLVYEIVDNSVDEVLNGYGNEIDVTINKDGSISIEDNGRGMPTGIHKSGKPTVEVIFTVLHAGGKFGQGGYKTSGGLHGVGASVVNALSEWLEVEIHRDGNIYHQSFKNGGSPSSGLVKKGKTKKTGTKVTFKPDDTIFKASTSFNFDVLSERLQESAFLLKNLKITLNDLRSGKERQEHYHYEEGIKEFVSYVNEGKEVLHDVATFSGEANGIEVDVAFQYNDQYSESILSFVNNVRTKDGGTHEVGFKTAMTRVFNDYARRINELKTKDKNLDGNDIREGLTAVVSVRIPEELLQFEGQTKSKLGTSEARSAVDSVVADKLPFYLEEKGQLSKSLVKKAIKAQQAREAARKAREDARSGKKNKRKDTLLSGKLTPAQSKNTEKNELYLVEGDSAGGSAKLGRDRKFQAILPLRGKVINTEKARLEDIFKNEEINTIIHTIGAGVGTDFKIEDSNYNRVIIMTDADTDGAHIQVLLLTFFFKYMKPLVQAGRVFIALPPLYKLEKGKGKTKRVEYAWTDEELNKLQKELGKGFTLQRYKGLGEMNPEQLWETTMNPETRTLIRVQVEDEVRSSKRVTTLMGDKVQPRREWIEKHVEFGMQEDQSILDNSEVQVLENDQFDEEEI
# DNA gyrase (Staphylococcus aureus, UniProt P0A0K8+P20831), sequence (P0A0K8 whole entry): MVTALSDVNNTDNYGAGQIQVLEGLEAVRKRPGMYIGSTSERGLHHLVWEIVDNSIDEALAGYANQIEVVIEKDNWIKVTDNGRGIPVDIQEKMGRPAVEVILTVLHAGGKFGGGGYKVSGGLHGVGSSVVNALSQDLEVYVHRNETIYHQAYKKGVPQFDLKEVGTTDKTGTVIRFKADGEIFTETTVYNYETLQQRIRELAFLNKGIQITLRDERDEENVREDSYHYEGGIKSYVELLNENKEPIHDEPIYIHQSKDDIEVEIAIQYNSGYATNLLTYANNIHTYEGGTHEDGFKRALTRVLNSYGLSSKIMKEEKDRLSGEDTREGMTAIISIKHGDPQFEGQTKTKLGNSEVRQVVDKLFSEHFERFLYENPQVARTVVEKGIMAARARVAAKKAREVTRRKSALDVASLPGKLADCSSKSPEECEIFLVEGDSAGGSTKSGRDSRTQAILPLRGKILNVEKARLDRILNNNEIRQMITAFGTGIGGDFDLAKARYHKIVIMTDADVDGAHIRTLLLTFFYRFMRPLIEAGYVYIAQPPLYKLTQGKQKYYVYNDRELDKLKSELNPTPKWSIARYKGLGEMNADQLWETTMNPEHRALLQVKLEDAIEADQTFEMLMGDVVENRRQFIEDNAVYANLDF
# DNA gyrase (Staphylococcus aureus, UniProt P0A0K8+P20831), sequence (P20831 whole entry): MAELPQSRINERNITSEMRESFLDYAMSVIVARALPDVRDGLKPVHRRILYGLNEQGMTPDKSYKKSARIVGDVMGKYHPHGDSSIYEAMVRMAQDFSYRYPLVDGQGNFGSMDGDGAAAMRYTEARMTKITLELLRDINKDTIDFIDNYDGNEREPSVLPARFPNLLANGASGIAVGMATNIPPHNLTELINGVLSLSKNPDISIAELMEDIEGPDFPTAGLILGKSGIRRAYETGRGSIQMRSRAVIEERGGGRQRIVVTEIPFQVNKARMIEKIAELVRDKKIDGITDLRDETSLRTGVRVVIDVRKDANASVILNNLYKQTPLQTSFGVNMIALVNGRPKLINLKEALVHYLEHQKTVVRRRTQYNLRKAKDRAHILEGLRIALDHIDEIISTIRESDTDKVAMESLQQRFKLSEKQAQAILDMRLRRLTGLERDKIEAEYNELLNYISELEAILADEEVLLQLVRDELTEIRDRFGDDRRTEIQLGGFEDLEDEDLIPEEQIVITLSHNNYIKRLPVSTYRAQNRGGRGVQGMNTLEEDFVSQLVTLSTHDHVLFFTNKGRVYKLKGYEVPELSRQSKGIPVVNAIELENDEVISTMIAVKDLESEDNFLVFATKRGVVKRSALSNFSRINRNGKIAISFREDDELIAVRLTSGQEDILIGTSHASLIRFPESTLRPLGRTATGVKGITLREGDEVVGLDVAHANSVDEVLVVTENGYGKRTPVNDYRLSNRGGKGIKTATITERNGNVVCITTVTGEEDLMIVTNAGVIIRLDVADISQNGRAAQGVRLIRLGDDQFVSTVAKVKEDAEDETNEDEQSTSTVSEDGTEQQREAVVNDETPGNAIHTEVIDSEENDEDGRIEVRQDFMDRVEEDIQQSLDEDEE
Compound,IC50 (DNA gyrase [1]),MIC (Escherichia coli [2]),MIC (Staphylococcus aureus [3]),IC50 [4],IC50 (DNA gyrase [5]),IC50 (Topoisomerase IV),MIC (Streptococcus pneumoniae [6]),MIC (Pseudomonas aeruginosa [7]),MIC (Moraxella catarrhalis),MIC (Acinetobacter baumannii),MIC (Haemophilus influenzae),MIC (Escherichia coli [8]),MIC (Enterococcus faecium),MIC (Pseudomonas aeruginosa [9]),MIC (Staphylococcus aureus [10]),MIC (Staphylococcus aureus [11]),MIC (Streptococcus pneumoniae [12]),IC50 [13],MIC (Staphylococcus aureus [14]),MIC (Enterococcus faecalis)
Cc1c(O)cc(O)c2c1C(=O)OC[C@H](NC(=O)[C@@H]1[C@H](O)CCN1C(=O)[C@@H](N)CO)C(=O)N[C@H](C(=O)N[C@@H](C)C(=O)O)CSC2,0.05 µM,> 128 µg/mL,> 128 µg/mL,,,,,,,,,,,,,,,,,
CO[C@@H]1[C@@H](OC(=O)c2ccc(C)[nH]2)[C@@H](O)[C@H](Oc2ccc3c(O)c(NC(=O)c4c[nH]c(C(=O)Nc5c(O)c6ccc(O[C@@H]7OC(C)(C)[C@H](OC)[C@@H](OC(=O)c8ccc(C)[nH]8)[C@H]7O)c(C)c6oc5=O)c4C)c(=O)oc3c2C)OC1(C)C,0.03 µM,6.25 µg/mL,0.0012 µg/mL,5 µM,0.006 µM,100 µM,0.78 µg/mL,12.5 µg/mL,,,,,,,,,,,,
CO[C@@H]1[C@@H](OC(=O)c2ccc(C)[nH]2)[C@@H](O)[C@H](Oc2ccc3c(O)c(NC(=O)c4ccc(O)c(CC=C(C)C)c4)c(=O)oc3c2Cl)OC1(C)C [CHLOROBIOCIN],,,< 0.06 µg/mL,3 µM,,10 µM,2 µg/mL,,,,,,,,,,,,,
C[C@H]1COc2c(N3CCN(C)CC3)c(F)cc3c(=O)c(C(=O)O)cn1c23.C[C@H]1COc2c(N3CCN(C)CC3)c(F)cc3c(=O)c(C(=O)O)cn1c23.O [LEVOFLOXACIN],,,,,,,,,1 µg/mL,0.125 µg/mL,< 0.015 µg/mL,0.031 µg/mL,4 µg/mL,0.5 µg/mL,0.125 µg/mL,32 µg/mL,,,,
CO[C@@H]1[C@@H](OC(N)=O)[C@@H](O)[C@H](Oc2ccc3c(O)c(NC(=O)c4ccc(O)c(CC=C(C)C)c4)c(=O)oc3c2C)OC1(C)C [NOVOBIOCIN],,,,10 µM,,35 µM,,,> 32 µg/mL,,0.12 µg/mL,> 32 µg/mL,,100 µg/mL,0.25 µg/mL,0.06 µg/mL,1 µg/mL,0.45 µM,16 µg/mL,32 µg/mL
